Measurements from patent publication US11766405B2 (MEDAC GESELLSCHAFT FUR KLINISCHE SPEZIALPRAPARATE MBH, priority 2013, dated 2023).
“And” between values parts separate entries of the source, which are not always exact repeats. Equal values may be shown once.

Columns and labels:
Assay type in all cases: physicochemical
[1] = Reconstitution time of lyophilisates; conditions: Example 13 urea lyophilisate
Procedure: Moreover, the lyophilisates could be completely reconstituted with isotonic saline solution in very much less than 30 secs.
In addition, the reconstitution time was determined.
(§1) The reconstitution was effected with 20 and 40 ml respectively of isotonic saline solution to an end concentration of 1 mg/ml.

[2] = HPLC determination of impurities / mitomycin purity, process 2 (UV 254 nm)
Procedure: Column: YMC-Pack Phenyl 4.6 mm×300 mm, 10 μm […]
Purity determinations according to process 2 were performed at different times. […]

[3] = Mitomycin C content, process 3 (content process Ph Eur 8.0 Mitomycin Monograph); conditions: for Mitomycin C content: process 3; for Mitomycin content: No. 6: DMSO/DMAA 5.7/94.3 wt.-%, 0.53 mg/g mitomycin C, 8.0 mg/g urea, room temperature, exclusion of light
Procedure: (§2) The solutions were stored at room temperature and with exclusion of light for a period of up to 71.5 hours.
Process 3 corresponds to the content process according to Ph Eur 8.0 Mitomycin Monograph January 2008: 1655. Process 4 corresponds to the impurities process according to Ph Eur 8.0 Mitomycin Monograph January 2008: 1655. […]

[4] = Impurities / purity, process 4 (impurities process Ph Eur 8.0 Mitomycin Monograph); conditions: for Impurity albomitomycin C / Sum of all impurities: Example 13 urea lyophilisate, process 4; for Mitomycin purity: No. 7: DMSO 100 wt.-%, 1.82 mg/g mitomycin C, 27.3 mg/g urea, room temperature, exclusion of light
Procedure: The composition according to the invention comprises the impurities D1, D2 and albomitomycin C in a total quantity of in particular less than 2.0%, preferably less than 1.5%, particularly preferably less than 1.0%, more preferably less than 0.8% and quite particularly preferably less than 0.6%, wherein the quantity of these impurities is determined according to the impurities process according to Ph Eur 8.0 Mitomycin Monograph January 2008: 1655. In the examples, this determination process is also referred to as process 4.
as §2
Process 3 corresponds to the content process according to Ph Eur 8.0 Mitomycin Monograph January 2008: 1655. Process 4 corresponds to the impurities process according to Ph Eur 8.0 Mitomycin Monograph January 2008: 1655.
as §1

[5] = 20 mg mitomycin C, 40° C. and 75% r.h., t = 3 months
[6] = 20 mg mitomycin C, 40° C. and 75% r.h., t = 6 months
[7] = 40 mg mitomycin C, 40° C. and 75% r.h., t = 3 months
[8] = 40 mg mitomycin C, 40° C. and 75% r.h., t = 6 months

Compound: CO[C@@]12[C@H](COC(N)=O)C3=C(C(=O)C(C)=C(N)C3=O)N1C[C@@H]1N[C@@H]12 [Mitomycin C, (1aS,8S,8aR,8bS)-6-amino-8-[[(aminocarbonyl)oxy]methyl]-1,1a,2,8,8a,8b-hexahydro-8a-methoxy-5-methyl-azirino[2′,3′:3,4]pyrrolo[1,2-a]indol-4,7-dione]
- Reconstitution time ([1]; 20 mg mitomycin C, 20 ml isotonic saline to 1 mg/ml, 40° C. and 75% r.h., t = 3 months): 12 s
- Reconstitution time ([1]; 20 mg mitomycin C, 20 ml isotonic saline to 1 mg/ml, 40° C. and 75% r.h., t = 6 months): 17 s
- Reconstitution time ([1]; 20 mg mitomycin C, 20 ml isotonic saline to 1 mg/ml, t = 0): 7 s
- Reconstitution time ([1]; 40 mg mitomycin C, 40 ml isotonic saline to 1 mg/ml, 40° C. and 75% r.h., t = 3 months): 20 s
- Reconstitution time ([1]; 40 mg mitomycin C, 40 ml isotonic saline to 1 mg/ml, 40° C. and 75% r.h., t = 6 months): 18 s
- Reconstitution time ([1]; 40 mg mitomycin C, 40 ml isotonic saline to 1 mg/ml, t = 0): 6 s
- Mitomycin purity [2]: 98.86% and 96.77% and 97.04%
- Mitomycin purity ([2]; Example 5 solution: 3.33 mg/g mitomycin C, 5 wt.-% urea, 89/11 wt.-% tert.-butanol/water, 5° C. with exclusion of light, t = 0): 99.23%
- Mitomycin purity ([2]; Example 5 solution: 3.33 mg/g mitomycin C, 5 wt.-% urea, 89/11 wt.-% tert.-butanol/water, 5° C. with exclusion of light, t = 6 h): 99.18%
- Mitomycin purity ([2]; Example 5 solution: 3.33 mg/g mitomycin C, 5 wt.-% urea, 89/11 wt.-% tert.-butanol/water, 5° C. with exclusion of light, t = 24 h): 99.20%
- Mitomycin purity ([2]; Example 5 solution: 3.33 mg/g mitomycin C, 5 wt.-% urea, 89/11 wt.-% tert.-butanol/water, 5° C. with exclusion of light, t = 72 h): 98.80%
- Mitomycin purity ([2]; Example 5 solution: 3.33 mg/g mitomycin C, 5 wt.-% urea, 89/11 wt.-% tert.-butanol/water, 5° C. with exclusion of light, t = 9 d): 98.21%
- Mitomycin purity ([2]; Example 5 solution: 3.33 mg/g mitomycin C, 5 wt.-% urea, 89/11 wt.-% tert.-butanol/water, RT with exclusion of light, t = 0): 99.33%
- Mitomycin purity ([2]; Example 5 solution: 3.33 mg/g mitomycin C, 5 wt.-% urea, 89/11 wt.-% tert.-butanol/water, RT with exclusion of light, t = 6 h): 98.83%
- Mitomycin purity ([2]; Example 5 solution: 3.33 mg/g mitomycin C, 5 wt.-% urea, 89/11 wt.-% tert.-butanol/water, RT with exclusion of light, t = 24 h): 97.80%
- Mitomycin purity ([2]; Example 5 solution: 3.33 mg/g mitomycin C, 5 wt.-% urea, 89/11 wt.-% tert.-butanol/water, RT with exclusion of light, t = 72 h): 96.74%
- Mitomycin purity ([2]; Example 5 solution: 3.33 mg/g mitomycin C, 5 wt.-% urea, 89/11 wt.-% tert.-butanol/water, RT with exclusion of light, t = 9 d): 96.35%
- Mitomycin purity ([2]; Example 5 solution: 3.33 mg/g mitomycin C, 5 wt.-% urea, 89/11 wt.-% tert.-butanol/water, RT without protection against light, t = 0): 99.32%
- Mitomycin purity ([2]; Example 5 solution: 3.33 mg/g mitomycin C, 5 wt.-% urea, 89/11 wt.-% tert.-butanol/water, RT without protection against light, t = 6 h): 98.83%
- Mitomycin purity ([2]; Example 5 solution: 3.33 mg/g mitomycin C, 5 wt.-% urea, 89/11 wt.-% tert.-butanol/water, RT without protection against light, t = 24 h): 97.60%
- Mitomycin purity ([2]; Example 5 solution: 3.33 mg/g mitomycin C, 5 wt.-% urea, 89/11 wt.-% tert.-butanol/water, RT without protection against light, t = 72 h): 96.14%
- Mitomycin purity ([2]; Example 5 solution: 3.33 mg/g mitomycin C, 5 wt.-% urea, 89/11 wt.-% tert.-butanol/water, RT without protection against light, t = 9 d): 95.78%
- Mitomycin C purity ([2]; Example 7 solution: 1.33 mg/g mitomycin C, 20 mg/g urea, 89/11 wt.-% tert.-butanol/water, 5° C. with exclusion of light, t = 27 h): 99.7%
- Mitomycin C purity ([2]; Example 7 solution: 1.33 mg/g mitomycin C, 20 mg/g urea, 89/11 wt.-% tert.-butanol/water, RT with exclusion of light, t = 5 h): 99.7%
- Mitomycin C purity ([2]; Example 7 solution: 1.33 mg/g mitomycin C, 20 mg/g urea, 89/11 wt.-% tert.-butanol/water, RT with exclusion of light, t = 22 h): 99.2%
- Mitomycin C purity ([2]; Example 7 solution: 1.33 mg/g mitomycin C, 20 mg/g urea, 89/11 wt.-% tert.-butanol/water, RT with exclusion of light, t = 27 h): 98.9%
- Mitomycin C purity ([2]; Example 8 solution: 1.67 mg/g mitomycin C, 25 mg/g urea, 89/11 wt.-% tert.-butanol/water, RT with exclusion of light, t = 5 h): 99.6%
- Mitomycin C purity ([2]; Example 8 solution: 1.67 mg/g mitomycin C, 25 mg/g urea, 89/11 wt.-% tert.-butanol/water, RT with exclusion of light, t = 22 h): 99.1%
- Mitomycin C purity ([2]; Example 8 solution: 1.67 mg/g mitomycin C, 25 mg/g urea, 89/11 wt.-% tert.-butanol/water, RT with exclusion of light, t = 27 h): 98.6%
- Mitomycin C content ([3]; Example 13 urea lyophilisate, 20 mg mitomycin C, 40° C. and 75% r.h., t = 3 months): 98.2%
- Mitomycin C content ([3]; Example 13 urea lyophilisate, 20 mg mitomycin C, 40° C. and 75% r.h., t = 6 months): 98.3%
- Mitomycin C content ([3]; Example 13 urea lyophilisate, 20 mg mitomycin C, t = 0): 97.8%
- Mitomycin C content ([3]; Example 13 urea lyophilisate, 40 mg mitomycin C, 40° C. and 75% r.h., t = 3 months): 96.6%
- Mitomycin C content ([3]; Example 13 urea lyophilisate, 40 mg mitomycin C, 40° C. and 75% r.h., t = 6 months): 96.7%
- Mitomycin C content ([3]; Example 13 urea lyophilisate, 40 mg mitomycin C, t = 0): 97.2%
- Mitomycin C content ([3]; Example 14 urea lyophilisate (20 mg) reconstituted with water for injection, end concentration 1 mg/ml): 100.6%
- Mitomycin C content ([3]; Example 14 urea lyophilisate (20 mg) reconstituted with water for injection, end concentration 2 mg/ml): 100.6%
- Mitomycin content ([3]; t = 0): 100%
- Mitomycin content ([3]; t = 6.5 h): 99.93%
- Mitomycin content ([3]; t = 14.5 h): 99.62%
- Mitomycin content ([3]; t = 21 h): 98.84%
- Mitomycin content ([3]; t = 42 h): 99.11%
- Mitomycin content ([3]; t = 71.5 h): 98.58%
- Impurity albomitomycin C [4, 5]: 0.20%
- Sum of all impurities [4, 5]: 0.55%
- Impurity albomitomycin C [4, 6]: 0.26%
- Sum of all impurities [4, 6]: 0.61%
- Impurity albomitomycin C ([4]; 20 mg mitomycin C, t = 0): 0.29%
- Sum of all impurities ([4]; 20 mg mitomycin C, t = 0): 0.29%
- Impurity albomitomycin C [4, 7]: 0.22%
- Sum of all impurities [4, 7]: 0.55
- Impurity albomitomycin C [4, 8]: 0.21%
- Sum of all impurities [4, 8]: 0.58
- Impurity albomitomycin C ([4]; 40 mg mitomycin C, t = 0): 0.32%
- Sum of all impurities ([4]; 40 mg mitomycin C, t = 0): 0.32
- Mitomycin purity ([4]; t = 0): 100%
- Mitomycin purity ([4]; t = 4 h): 99.31%
- Mitomycin purity ([4]; t = 6.5 h): 99.32%
- Mitomycin purity ([4]; t = 13 h): 99.19%
- Mitomycin purity ([4]; t = 20 h): 99.36%
- Mitomycin purity ([4]; t = 26.5 h): 99.32%
